Activity calls are given as the source filed them.
Experiments:
[1] = toxicity to human hepatoma HepG2 cells – cell-based, cherry-picked samples, cytotoxicity control, dose response (AID 1159577); format: functional
[2] = toxicity to human HepG2 hepatoma cells – cell-based, plate reader, dry powder samples, cytotoxicity control, dose response (AID 1159569); format: functional;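 further: inhibitor potency with signal falling toward the positive control level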
[3] = Dd2 malaria parasite growth inhibition potency – SYBR Green, dry powder samples, dose response (AID 1159566); format: functional, cell-based;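 further: potency for growth inhibition with lower SYBR green DNA signal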
[4] = growth inhibition of yeast DHODH-expressing 3D7 parasites – SYBR Green, dry powder samples, dose response (AID 1159570); format: functional, cell-based;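 further: parasite growth measured after 72 hours of compound exposure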
[5] = growth inhibition of PfATP4-mutant resistant parasites – NITD609-resistant line, SYBR Green, dry powder, dose response (AID 1159571); format: functional, cell-based;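 further: parasites synchronized at ring stage by sorbitol before testing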
[6] = P. falciparum Dd2 growth inhibitors, dose response, SYBR Green, cherry-picked samples (AID 1159567); format: functional, cell-based
[7] = target: 5-hydroxytryptamine receptor 1A (Homo sapiens, UniProt P08908); format: functional
H4 = test: Luminescence Cell-Based Dose Response HTS to Identify Activators of 5'UTR Stem-Loop Driven Prion Protein mRNA Translation in H4 Neuroglioblastoma Cells. [Related pubchem assays: 1829 (Project Summary), 1814 (Primary HTS)]; format: functional; conditions: Homo sapiens
[8] = target: Induced myeloid leukemia cell differentiation protein Mcl-1 (Homo sapiens, UniProt Q07820); format: functional
[9] = Luminescence Cell-Based Dose Confirmation HTS to Identify Activators of 5'UTR Stem-Loop Driven Alpha-Synuclein mRNA Translation in H4 Neuroglioblastoma Cells. [Related pubchem assays: 1829 (Project Summary), 1814 (Primary HTS)]; format: functional
[10] = Luminescence Cell-Based Dose Response HTS to Identify Activators of Luciferase Translation or Activity in H4 […] Cells. [Related pubchem assays: 1829 (Project Summary), 1814 (Primary HTS)]; format: functional
[11] = target: Heat shock protein HSP 90-alpha (Homo sapiens, UniProt P07900); format: functional, organism-based
Ephrin type-A receptor 4 = Ephrin type-A receptor 4 (Mus musculus, UniProt Q03137); test: EphA4 ligand-binding antagonists – biochemical, colorimetric, mouse EphA4, primary screen (AID 689); format: functional
Cytochrome P450 3A4 = Cytochrome P450 3A4 (Homo sapiens, UniProt P08684);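 further: CYP3A4 tested as one member of a cytochrome P450 panel screen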
[12] = M. tuberculosis growth inhibition, HTS (AID 449762); format: functional
[13] = NIH3T3 cell viability loss – ATP luminescence, mouse fibroblasts, counter-screen, dose response (AID 2010); format: functional, cell-based;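 further: cells exposed to compound for about 90 hours before reading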
[14] = Trypanosoma cruzi growth suppression in host cells – NIH3T3 host cells, beta-gal luminescence, confirmation (AID 2044); format: functional, cell-based;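 further: intracellular parasites grown in NIH/3T3 mouse fibroblasts as host cells; luminescent beta-galactosidase reporter signal from transgenic T. cruzi replicating inside host cells; inhibitors lower the luminescence signal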
[15] = microbe, parasite or virus in culture; format: functional; conditions: Mycobacterium tuberculosis
[16] = Reduced DLD-1 viability, concentration-response, CellTiter-Glo luminescence (AID 1117352); format: functional
[17] = HCT116 cell viability decrease, GSK3B pretreatment – CellTiter-Glo, IC50, dose response (AID 1117339); format: functional; conditions: HCT-116
[18] = cytotoxicity toward HT-29 cells – cell-based, CellTiter-Glo luminescence, IC50, dose response (AID 1117330); format: functional
[19] = cytotoxicity toward HCT116 cells – cell-based, CellTiter-Glo luminescence, IC50, dose response (AID 1117332); format: functional; conditions: HCT-116
[20] = RKO cell viability reduction, dose response, CellTiter-Glo luminescence (AID 1117322); format: functional
[21] = cytotoxicity toward Colo320 cells – cell-based, CellTiter-Glo luminescence, IC50, dose response (AID 1117334); format: functional; conditions: COLO 320
[22] = SNU-C1 cell viability reduction, dose response, CellTiter-Glo luminescence (AID 1117323); format: functional, cell-based
[23] = CellTiter-Glo luminescence survival assay, SW480 colon tumor line, concentration-response curve, half-maximal inhibitory concentration (AID 1117338); format: functional
Protein Tat = target: T1, Protein Tat (Human immunodeficiency virus type 1 group M subtype B (isolate HXB2)(HIV-1), UniProt P04608); format: functional;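 further: tat binding to TAR RNA read out by fluorescence polarization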
T1 sequence (P04608 whole entry): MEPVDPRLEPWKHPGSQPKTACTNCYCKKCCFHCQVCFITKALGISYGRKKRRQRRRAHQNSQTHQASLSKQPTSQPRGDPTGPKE

Estrogen receptor beta [24] = target: T2, Estrogen receptor beta (Homo sapiens, UniProt Q92731); test: blockers of SRC-3 recruitment to ERβ – biochemical, ELISA, streptavidin-HRP readout, orthogonal assay, confirmation (AID 1060)
Estrogen receptor beta [25] = target: T2, Estrogen receptor beta
Estrogen receptor = target: T3, Estrogen receptor (Homo sapiens, UniProt P03372);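 further: potency for inhibiting coactivator peptide recruitment to the receptor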
T3 sequence (P03372 whole entry): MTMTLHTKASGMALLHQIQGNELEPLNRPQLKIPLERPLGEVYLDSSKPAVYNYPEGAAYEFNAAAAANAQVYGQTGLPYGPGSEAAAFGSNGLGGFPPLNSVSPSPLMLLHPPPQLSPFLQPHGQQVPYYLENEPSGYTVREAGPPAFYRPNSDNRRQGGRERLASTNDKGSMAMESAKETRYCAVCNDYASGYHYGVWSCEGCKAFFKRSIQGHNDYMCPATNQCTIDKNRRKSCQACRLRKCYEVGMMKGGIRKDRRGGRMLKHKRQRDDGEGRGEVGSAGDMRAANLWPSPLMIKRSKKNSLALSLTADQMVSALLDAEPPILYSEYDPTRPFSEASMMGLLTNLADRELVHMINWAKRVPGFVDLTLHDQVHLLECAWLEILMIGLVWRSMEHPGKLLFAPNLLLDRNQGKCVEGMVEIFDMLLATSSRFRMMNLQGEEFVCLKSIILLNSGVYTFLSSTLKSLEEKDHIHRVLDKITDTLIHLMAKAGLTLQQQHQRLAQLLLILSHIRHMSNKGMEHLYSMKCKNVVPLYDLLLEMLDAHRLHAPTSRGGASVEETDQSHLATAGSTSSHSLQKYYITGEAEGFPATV

[26] = T. cruzi growth inhibition in host cells, dose response, cell-based, plate reader, dry powder, set 2 (AID 652275); format: functional
[27] = intracellular Chagas parasite inhibition in myoblasts – Tulahuen strain, L-6 host cells, dry powder, dose response (AID 651890); format: functional, cell-based
[28] = African trypanosome bloodstream form growth inhibition – STIB900 strain, plate reader, dry powder, dose response (AID 651894); format: functional, cell-based
[29] = antileishmanial activity on axenic amastigotes – plate reader, dry powder, dose response (AID 651892); format: functional, cell-based
[30] = host muscle cell viability loss – plate reader, dry powder, counter-screen for T. cruzi inhibitor project, dose response (AID 651895); format: functional, cell-based
[31] = Trypanosoma cruzi replication inhibitors in host cells – cell-based, plate reader, dry powder samples, dose response (AID 651845); format: functional
[32] = antimalarial activity against erythrocytic parasites – NF54 strain, plate reader, dry powder, dose response (AID 651889); format: functional, cell-based
[33] = intracellular Trypanosoma cruzi inhibitors in host cells – cell-based, plate reader, cherry-pick samples, set 3, dose response (AID 651818); format: functional;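 further: compounds incubated with infected cells for about four days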
[34] = anti-trypanosomal activity in BESM host cells – imaging, CA-I/72 strain, bovine embryo skeletal muscle, dry powder, dose response (AID 651885); format: functional, cell-based
[35] = target: Sphingosine 1-phosphate receptor 2 (Homo sapiens, UniProt O95136); test: Dose Response Cell Based Assay for Agonists of the S1P2 Receptor. [Related pubchem assays: 729, 736, 843 ]; format: functional
Sphingosine 1-phosphate receptor 2, sequence (O95136 whole entry): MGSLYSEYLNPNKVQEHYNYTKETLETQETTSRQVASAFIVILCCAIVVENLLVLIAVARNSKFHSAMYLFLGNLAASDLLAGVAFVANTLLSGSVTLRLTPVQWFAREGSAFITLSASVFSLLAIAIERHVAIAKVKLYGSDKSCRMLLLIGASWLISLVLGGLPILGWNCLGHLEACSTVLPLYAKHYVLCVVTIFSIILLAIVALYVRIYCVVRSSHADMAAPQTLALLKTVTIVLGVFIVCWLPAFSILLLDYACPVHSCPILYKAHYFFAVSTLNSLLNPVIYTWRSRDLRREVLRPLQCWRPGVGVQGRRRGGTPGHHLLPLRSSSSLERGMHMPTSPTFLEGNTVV

T2 sequence (Q92731 whole entry): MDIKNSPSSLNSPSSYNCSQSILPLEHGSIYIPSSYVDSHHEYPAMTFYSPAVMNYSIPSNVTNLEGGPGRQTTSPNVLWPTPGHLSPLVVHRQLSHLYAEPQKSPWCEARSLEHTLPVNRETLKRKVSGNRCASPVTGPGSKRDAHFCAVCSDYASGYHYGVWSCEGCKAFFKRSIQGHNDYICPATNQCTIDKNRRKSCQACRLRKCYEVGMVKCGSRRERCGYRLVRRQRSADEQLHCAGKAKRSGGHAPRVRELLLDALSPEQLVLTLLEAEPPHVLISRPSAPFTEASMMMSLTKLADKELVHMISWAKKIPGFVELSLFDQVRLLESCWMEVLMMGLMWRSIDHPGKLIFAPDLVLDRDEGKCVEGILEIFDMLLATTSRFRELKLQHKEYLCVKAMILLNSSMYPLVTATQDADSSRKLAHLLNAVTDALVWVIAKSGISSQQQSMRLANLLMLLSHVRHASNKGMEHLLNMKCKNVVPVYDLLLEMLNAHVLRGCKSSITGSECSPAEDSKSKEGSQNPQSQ
Ephrin type-A receptor 4, sequence (Q03137 whole entry): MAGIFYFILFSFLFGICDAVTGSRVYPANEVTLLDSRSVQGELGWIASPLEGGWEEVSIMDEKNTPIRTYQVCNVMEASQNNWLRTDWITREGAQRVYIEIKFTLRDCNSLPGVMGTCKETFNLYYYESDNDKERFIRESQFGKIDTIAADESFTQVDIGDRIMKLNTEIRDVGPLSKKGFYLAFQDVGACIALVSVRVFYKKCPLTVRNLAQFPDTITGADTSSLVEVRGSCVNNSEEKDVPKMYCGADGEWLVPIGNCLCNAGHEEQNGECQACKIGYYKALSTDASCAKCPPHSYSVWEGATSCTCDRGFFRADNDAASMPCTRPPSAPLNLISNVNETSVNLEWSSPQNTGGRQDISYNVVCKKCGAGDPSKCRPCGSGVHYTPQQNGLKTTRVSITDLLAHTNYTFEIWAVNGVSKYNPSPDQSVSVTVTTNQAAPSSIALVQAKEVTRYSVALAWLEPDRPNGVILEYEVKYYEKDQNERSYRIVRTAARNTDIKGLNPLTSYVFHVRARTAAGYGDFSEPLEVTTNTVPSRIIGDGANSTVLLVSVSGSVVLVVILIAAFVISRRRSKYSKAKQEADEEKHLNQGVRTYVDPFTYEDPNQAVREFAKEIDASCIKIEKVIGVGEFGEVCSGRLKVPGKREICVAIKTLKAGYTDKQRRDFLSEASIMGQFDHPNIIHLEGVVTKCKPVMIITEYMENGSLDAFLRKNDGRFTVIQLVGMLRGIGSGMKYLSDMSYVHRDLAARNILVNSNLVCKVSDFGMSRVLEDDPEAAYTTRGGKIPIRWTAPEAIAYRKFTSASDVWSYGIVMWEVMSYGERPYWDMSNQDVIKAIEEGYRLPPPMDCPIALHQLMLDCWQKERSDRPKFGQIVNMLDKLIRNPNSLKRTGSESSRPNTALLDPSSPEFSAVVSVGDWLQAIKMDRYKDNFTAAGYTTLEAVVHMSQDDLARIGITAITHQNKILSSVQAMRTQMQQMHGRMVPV
Cytochrome P450 3A4, sequence (P08684 whole entry): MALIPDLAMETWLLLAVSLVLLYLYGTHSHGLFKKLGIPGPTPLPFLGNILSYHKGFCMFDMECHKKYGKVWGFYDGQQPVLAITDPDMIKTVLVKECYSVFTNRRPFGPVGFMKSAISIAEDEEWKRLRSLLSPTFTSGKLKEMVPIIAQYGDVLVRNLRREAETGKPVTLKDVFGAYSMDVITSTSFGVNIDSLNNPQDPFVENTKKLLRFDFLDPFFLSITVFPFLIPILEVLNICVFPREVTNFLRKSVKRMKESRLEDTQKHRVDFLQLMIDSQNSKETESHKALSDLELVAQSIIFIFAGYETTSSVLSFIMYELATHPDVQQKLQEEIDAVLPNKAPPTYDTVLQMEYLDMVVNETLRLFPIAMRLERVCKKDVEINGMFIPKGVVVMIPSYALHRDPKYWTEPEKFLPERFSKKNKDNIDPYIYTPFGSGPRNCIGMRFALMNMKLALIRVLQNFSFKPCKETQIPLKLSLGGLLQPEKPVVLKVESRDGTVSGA
5-hydroxytryptamine receptor 1A, sequence (P08908 whole entry): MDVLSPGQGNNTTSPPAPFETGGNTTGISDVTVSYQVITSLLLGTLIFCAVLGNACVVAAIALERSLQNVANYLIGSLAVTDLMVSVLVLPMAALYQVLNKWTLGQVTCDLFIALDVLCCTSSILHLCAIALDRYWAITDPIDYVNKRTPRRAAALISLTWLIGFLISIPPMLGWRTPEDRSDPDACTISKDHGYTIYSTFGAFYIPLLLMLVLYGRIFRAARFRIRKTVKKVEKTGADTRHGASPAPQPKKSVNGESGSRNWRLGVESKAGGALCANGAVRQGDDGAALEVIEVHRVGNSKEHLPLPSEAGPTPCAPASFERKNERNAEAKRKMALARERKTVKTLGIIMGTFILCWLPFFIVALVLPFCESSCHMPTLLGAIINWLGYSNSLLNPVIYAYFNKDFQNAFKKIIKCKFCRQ
Induced myeloid leukemia cell differentiation protein Mcl-1, sequence (Q07820 whole entry): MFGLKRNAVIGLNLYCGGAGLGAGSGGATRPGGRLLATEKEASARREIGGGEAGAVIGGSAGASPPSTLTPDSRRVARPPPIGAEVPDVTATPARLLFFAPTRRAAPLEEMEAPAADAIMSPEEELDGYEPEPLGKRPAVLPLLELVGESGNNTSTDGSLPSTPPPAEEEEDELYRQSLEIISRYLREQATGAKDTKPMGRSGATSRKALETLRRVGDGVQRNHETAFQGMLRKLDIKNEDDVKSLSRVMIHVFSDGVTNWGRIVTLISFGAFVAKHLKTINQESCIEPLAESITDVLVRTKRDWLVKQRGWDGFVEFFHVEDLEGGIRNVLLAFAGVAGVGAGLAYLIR

In the case of `COc1ccc(NC(=O)Nc2ccc3c(c2)CC(=O)N([C@H](C)CO)C[C@H](C)[C@@H](CN(C)Cc2ccc(C(=O)Nc4ccccc4N)cc2)O3)cc1`, the AC50 [1] is reported as > 39 µM (inactive), the AC50 [2] is reported as > 100 µM (inactive) and the AC50 [3] is reported as 1.5 µM (active). The AC50 [4] was 2.3 µM (active), the AC50 [5] was 2.04 µM (active) and the AC50 [6] was 2.22 µM (active).
With `Cc1[nH]c2c(C(F)(F)F)cccc2c1CCN` the EC50 [7] was > 50 µM (not active).
With `CCOC(=O)c1c(C)oc2c1c(C(c1cccnc1)N1CCOCC1)c(O)c1ccccc12` (stereo not given) the EC50 (H4) was > 120 µM (not active), the IC50 [8] was 1.17 µM (active) and the EC50 [9] was 12.5 µM (active). For the same compound, the EC50 [10] was 106 µM (active), the AC50 [11] was 8.43 µM (active) and the IC50 (Ephrin type-A receptor 4) was 3.58 µM (active).
With `Cc1ccccc1C1C(C#N)=C2N=C(N)c3c(sc4c3CCCCC4)N2C2=C1C(=O)CC(C)(C)C2` (stereo not given) the AC50 (Cytochrome P450 3A4) was 1.12 µM (inconclusive), the IC50 [12] was > 100 µM (active) and the EC50 [13] was > 60 µM (inconclusive). The EC50 [14] was 1.52 µM (active) and the CC50 [15] was 33.1 µM (active).
In the case of `COC(=O)c1ccccc1C(=O)OC` [DIMETHYL PHTHALATE], the IC50 [16] is reported as > 20 µM (inactive), the IC50 [17] is reported as > 20 µM (inactive) and the IC50 [18] is reported as > 20 µM (inactive). The IC50 [19] was > 20 µM (inactive), the IC50 [20] was > 20 µM (inactive) and the IC50 [21] was > 20 µM (inactive). For the same compound, the IC50 [22] was > 20 µM (inactive) and the IC50 [23] was > 20 µM (inactive).
For `Cc1noc(C)c1COc1ccc(C(=O)OCC(=O)N2c3ccccc3NC(=O)C2(C)C)cc1`, the IC50 (Protein Tat) was > 100 µM (inconclusive), the IC50 (Estrogen receptor beta [24]) was 3.98 µM (not active) and the IC50 (Estrogen receptor beta [25]) was 2.72 µM (active). The IC50 (Estrogen receptor) was 8.74 µM (active).
In the case of `C[C@@H]1CN([C@H](C)CO)C(=O)c2cccc(NC(=O)c3ccncc3)c2O[C@H]1CN(C)Cc1ccc(Oc2ccccc2)cc1`, the AC50 [26] is reported as 1.7 nM (active), the IC50 [27] is reported as 31 nM (active) and the IC50 [28] is reported as 242 nM (active). For the same compound, the IC50 [29] was 43.7 µM (inactive), the IC50 [30] was 13.3 µM (inactive) and the AC50 [31] was 5.21 nM (active). For the same compound, the IC50 [32] was 820 nM (inactive), the AC50 [33] was 80 nM (active) and the IC50 [34] was 30 nM (active).
In the case of `N#CCN1CCN(CC(=O)Nc2cccc3ccccc23)CC1`, the EC50 [35] is reported as > 50 µM (not active).
